Results reported in ChEMBL document CHEMBL1926648, “Synthesis and biological activity of dihydroimidazole and 3,4-dihydrobenzo[4,5]imidazo[1,2-a][1,3,5]triazins” (2012).

Experiments:
Format in all cases: functional
Conditions in all cases: read-out: IZ
[1] = tested on: Escherichia coli; assay: Antibacterial activity against Escherichia coli at 30000 ppm after 24 hrs by agar diffusion method
[2] = tested on: Escherichia coli; assay: Antibacterial activity against Escherichia coli at 50000 ppm after 24 hrs by agar diffusion method
[3] = tested on: Bacillus cereus; assay: Antibacterial activity against Bacillus cereus at 10000 ppm after 24 hrs by agar diffusion method
[4] = tested on: Staphylococcus aureus; assay: Antibacterial activity against Staphylococcus aureus at 30000 ppm after 24 hrs by agar diffusion method
[5] = tested on: Micrococcus luteus; assay: Antibacterial activity against Micrococcus luteus at 30000 ppm after 24 hrs by agar diffusion method
[6] = tested on: Pseudomonas aeruginosa; assay: Antibacterial activity against Pseudomonas aeruginosa at 50000 ppm after 24 hrs by agar diffusion method
[7] = tested on: Bacillus subtilis; assay: Antibacterial activity against Bacillus subtilis at 10000 ppm after 24 hrs by agar diffusion method
[8] = tested on: Staphylococcus aureus; assay: Antibacterial activity against Staphylococcus aureus at 10000 ppm after 24 hrs by agar diffusion method
[9] = tested on: Pseudomonas aeruginosa; assay: Antibacterial activity against Pseudomonas aeruginosa at 10000 ppm after 24 hrs by agar diffusion method
[10] = tested on: Bacillus cereus; assay: Antibacterial activity against Bacillus cereus at 50000 ppm after 24 hrs by agar diffusion method
[11] = tested on: Kocuria rosea; assay: Antibacterial activity against Micrococcus roseus at 50000 ppm after 24 hrs by agar diffusion method
[12] = tested on: Kocuria rosea; assay: Antibacterial activity against Micrococcus roseus at 10000 ppm after 24 hrs by agar diffusion method
[13] = tested on: Micrococcus luteus; assay: Antibacterial activity against Micrococcus luteus at 50000 ppm after 24 hrs by agar diffusion method
[14] = tested on: Staphylococcus aureus; assay: Antibacterial activity against Staphylococcus aureus at 50000 ppm after 24 hrs by agar diffusion method
[15] = tested on: Pseudomonas aeruginosa; assay: Antibacterial activity against Pseudomonas aeruginosa at 30000 ppm after 24 hrs by agar diffusion method
[16] = tested on: Bacillus subtilis; assay: Antibacterial activity against Bacillus subtilis at 50000 ppm after 24 hrs by agar diffusion method
[17] = tested on: Bacillus subtilis; assay: Antibacterial activity against Bacillus subtilis at 30000 ppm after 24 hrs by agar diffusion method
[18] = tested on: Kocuria rosea; assay: Antibacterial activity against Micrococcus roseus at 30000 ppm after 24 hrs by agar diffusion method
[19] = tested on: Bacillus cereus; assay: Antibacterial activity against Bacillus cereus at 30000 ppm after 24 hrs by agar diffusion method
[20] = tested on: Escherichia coli; assay: Antibacterial activity against Escherichia coli at 10000 ppm after 24 hrs by agar diffusion method
[21] = tested on: Micrococcus luteus; assay: Antibacterial activity against Micrococcus luteus at 10000 ppm after 24 hrs by agar diffusion method

SMILES | zone of inhibition at 30000 ppm [1] | zone of inhibition at 50000 ppm [2] | zone of inhibition at 10000 ppm [3] | zone of inhibition at 30000 ppm [4] | zone of inhibition at 30000 ppm [5] | zone of inhibition at 50000 ppm [6] | zone of inhibition at 10000 ppm [7] | zone of inhibition at 10000 ppm [8] | zone of inhibition at 10000 ppm [9] | zone of inhibition at 50000 ppm [10] | zone of inhibition at 50000 ppm [11] | zone of inhibition at 10000 ppm [12] | zone of inhibition at 50000 ppm [13] | zone of inhibition at 50000 ppm [14] | zone of inhibition at 30000 ppm [15] | zone of inhibition at 50000 ppm [16] | zone of inhibition at 30000 ppm [17] | zone of inhibition at 30000 ppm [18] | zone of inhibition at 30000 ppm [19] | zone of inhibition at 10000 ppm [20] | also measured
NC1=Nc2nc3ccccc3n2C2(NC(=O)CS2)N1 (stereo not given) | 5 mm | 8 mm | 6 mm | 5 mm | 3 mm | 11 mm | 9 mm | 3 mm | 5 mm | 11 mm | 10 mm | 4 mm | 7 mm | 8 mm | 8 mm | 16 mm | 13 mm | 7 mm | 8 mm | – | –
NC1=NC2(CCCC2)n2c(nc3ccccc32)N1 | 17 mm | 20 mm | – | 4 mm | 7 mm | 5 mm | 9 mm | – | – | 9 mm | 8 mm | – | 12 mm | 6 mm | – | 15 mm | 12 mm | 3 mm | 5 mm | 12 mm | zone of inhibition at 10000 ppm [21]: 7 mm
Nc1c[nH]/c(=N/c2nc3ccccc3[nH]2)[nH]1 | 8 mm | 14 mm | – | 9 mm | 4 mm | 9 mm | – | 4 mm | 4 mm | 4 mm | 12 mm | 6 mm | 8 mm | 15 mm | 7 mm | 6 mm | – | 8 mm | – | 3 mm | –
N#Cc1[nH]/c(=N/c2nc3ccccc3[nH]2)[nH]c1N | 13 mm | 19 mm | 6 mm | 7 mm | 7 mm | 9 mm | 8 mm | 3 mm | 6 mm | 14 mm | 9 mm | 4 mm | 9 mm | 7 mm | 8 mm | 16 mm | 11 mm | 7 mm | 10 mm | 8 mm | zone of inhibition at 10000 ppm [21]: 4 mm
NC1=Nc2nc3ccccc3n2C2(NC(=O)CC(=O)N2)N1 | 11 mm | 15 mm | 1 mm | 5 mm | 4 mm | 9 mm | 6 mm | – | 2 mm | 7 mm | 7 mm | 1 mm | 6 mm | 8 mm | 6 mm | 14 mm | 10 mm | 4 mm | 4 mm | 8 mm | –
CC1=NN(c2ccccc2)C2(C1)NC(N)=Nc1nc3ccccc3n12 (stereo not given) | 13 mm | 16 mm | – | – | 9 mm | 6 mm | – | – | – | 4 mm | 8 mm | – | 11 mm | 4 mm | 4 mm | 9 mm | 3 mm | 3 mm | – | 8 mm | zone of inhibition at 10000 ppm [21]: 5 mm
